# What was measured:
# [1] = Measurement of two-photon absorption cross-section (z-scan technique, 405 nm); format: physicochemical; conditions: for Two-photon absorption cross-section σ: light of wavelength 405 nm, Ti:sapphire pulsed laser second harmonic, pulse width 80 fs, 1 kHz; for Ratio σ/ε: two-photon absorption cross-section σ (GM) to molar absorption coefficient ε at 405 nm
# Description: The two-photon absorption cross-section of the compound A irradiated with light having a wavelength of 405 nm may be greater than or equal to 1 GM, may be greater than or equal to 10 GM, may be greater than or equal to 30 GM, may be greater than or equal to 50 GM, may be greater than or equal to 70 GM, may be greater than or equal to 100 GM, may be greater than or equal to 200 GM, or may be greater than or equal to 300 GM. The upper limit of the two-photon absorption cross-section of the compound A is not particularly limited, and is, for example, 10000 GM. For example, the two-photon absorption cross-section may be measured by the z-scan technique described in J. Opt. Soc. Am. B, 2003, Vol. 20, p. 529. The z-scan technique is widely used as a method for measuring non-linear optical constants. In the z-scan technique, a measurement sample is moved along the beam irradiation direction near the focal point at which the laser beam is focused. During this process, the change in the amount of light transmitted through the measurement sample is recorded. In the z-scan technique, the power density of incident light changes depending on the location of the measurement sample. Thus, when the measurement sample absorbs light non-linearly, the amount of transmitted light is attenuated when the measurement sample is located near the focal point of the laser beam. The two-photon absorption cross-section may be calculated by fitting the changes in the amount of transmitted light based on the theoretical curve predicted from conditions, such as the intensity of the incident light, the thickness of the measurement sample, and the concentration of the compound A in the measurement sample.
# The two-photon absorption cross-section of the compounds of Examples and Comparative Examples was measured with respect to light having a wavelength of 405 nm. The measurement of the two-photon absorption cross-section was performed using the z-scan technique described in J. Opt. Soc. Am. B, 2003, Vol. 20, p. 529. The light source used for the measurement of the two-photon absorption cross-section was a Ti:sapphire pulsed laser. Specifically, second harmonic waves from the Ti:sapphire pulsed laser were applied to the sample. The pulse width of the laser was 80 fs. The repetition frequency of the laser was 1 kHz. The average power of the laser was changed in the range of greater than or equal to 0.01 mW and less than or equal to 0.08 mW. […] The full width at half maximum of the light from the laser was 4 nm.
# [2] = Measurement of molar absorption coefficient (JIS K0115: 2004, 405 nm); format: physicochemical; conditions: absorbance at 405 nm; compound concentration 500 mmol/L
# Description: The molar absorption coefficient of the compound A with respect to light having a wavelength of 405 nm may be less than or equal to 50 mol^−1·L·cm^−1, may be less than or equal to 10 mol^−1·L·cm^−1, may be less than or equal to 5 mol^−1·L·c^−1, may be less than or equal to 2 mol^−1·L·cm^−1, or may be less than or equal to 1 mol^−1·L·cm^−1. The lower limit of the molar absorption coefficient of the compound A is not particularly limited, and is, for example, 0.01 mol^−1·L·cm^−1. The molar absorption coefficient may be measured by, for example, a method in accordance with the manual specified in Japanese Industrial Standards (JIS) K0115: 2004. […] In the measurement of the molar absorption coefficient, furthermore, the concentration of the compound A is adjusted to 500 mmol/L. This concentration is very high compared to the concentration in the measurement test of the molar absorption coefficient of an optical absorption peak. The molar absorption coefficient may be used as an index of one-photon absorption.
# The compounds of Examples and Comparative Examples were analyzed by a method in accordance with JIS K0115: 2004 to measure the molar absorption coefficient. Specifically, first, a measurement sample was provided in which the concentration of the compound had been controlled to 500 mmol/L. An absorption spectrum of the measurement sample was measured. From the spectrum obtained, the absorbance at a wavelength of 405 nm was read. The molar absorption coefficient was calculated based on the concentration of the compound in the measurement sample and the optical path length of the cell used for the measurement.
Two-photon absorption cross-section σ [1],Ratio σ/ε [1],Molar absorption coefficient ε [2],Compound
51 GM,38,1.34 L/mol/cm,COc1cc(Br)c(-c2cc(OC)c(OC)cc2-c2cc(OC)c(OC)cc2-c2cc(OC)c(OC)cc2Br)cc1OC [Ex. 1]
73 GM,72,1.01 L/mol/cm,COc1cc(Br)c(-c2cc(OC)c(OC)cc2-c2cc(OC)c(OC)cc2-c2cc(OC)c(OC)cc2-c2cc(OC)c(OC)cc2-c2cc(OC)c(OC)cc2-c2cc(OC)c(OC)cc2-c2cc(OC)c(OC)cc2Br)cc1OC [Ex. 2]
71 GM,142,0.50 L/mol/cm,COc1cc(Br)c(-c2cc(OC)c(OC)cc2-c2cc(OC)c(OC)cc2-c2cc(OC)c(OC)cc2-c2cc(OC)c(OC)cc2-c2cc(OC)c(OC)cc2-c2cc(OC)c(OC)cc2-c2cc(OC)c(OC)cc2-c2cc(OC)c(OC)cc2-c2cc(OC)c(OC)cc2-c2cc(OC)c(OC)cc2-c2cc(OC)c(OC)cc2Br)cc1OC [Ex. 3]
82 GM,167,0.49 L/mol/cm,COc1cc(Br)c(-c2cc(OC)c(OC)cc2-c2cc(OC)c(OC)cc2-c2cc(OC)c(OC)cc2-c2cc(OC)c(OC)cc2-c2cc(OC)c(OC)cc2-c2cc(OC)c(OC)cc2-c2cc(OC)c(OC)cc2-c2cc(OC)c(OC)cc2-c2cc(OC)c(OC)cc2-c2cc(OC)c(OC)cc2-c2cc(OC)c(OC)cc2-c2cc(OC)c(OC)cc2-c2cc(OC)c(OC)cc2Br)cc1OC [Ex. 4]
336 GM,223,1.51 L/mol/cm,COc1cc(Br)c(-c2cc(OC)c(OC)cc2-c2cc(OC)c(OC)cc2-c2cc(OC)c(OC)cc2-c2cc(OC)c(OC)cc2-c2cc(OC)c(OC)cc2-c2cc(OC)c(OC)cc2-c2cc(OC)c(OC)cc2-c2cc(OC)c(OC)cc2-c2cc(OC)c(OC)cc2-c2cc(OC)c(OC)cc2-c2cc(OC)c(OC)cc2-c2cc(OC)c(OC)cc2-c2cc(OC)c(OC)cc2-c2cc(OC)c(OC)cc2-c2cc(OC)c(OC)cc2Br)cc1OC [Ex. 5]
could not be measured,–,–,COc1cc(Br)c(-c2cc(OC)c(OC)cc2-c2cc(OC)c(OC)cc2Br)cc1OC [OP3Br]
23000 GM,10,2730 L/mol/cm,"C(#Cc1c(C#Cc2ccccc2)c(C#Cc2ccccc2)c(C#Cc2ccccc2)c(C#Cc2ccccc2)c1C#Cc1ccccc1)c1ccccc1 [compound 1, hexakis(phenylethynyl)benzene, reference compound]"
380 GM,5,70 L/mol/cm,"OC(C#Cc1ccc(N(c2ccc(C#CC(O)(c3ccccc3)c3ccccc3)cc2)c2ccc(C#CC(O)(c3ccccc3)c3ccccc3)cc2)cc1)(c1ccccc1)c1ccccc1 [compound 2, reference compound]"
